Toxic doses and inconclusive results are not listed. Rule as the data show it: active = T/C of 150% or more; inactive = T/C below 125%.
Tested on: L1210 leukemia ip in BDF1 mice, survival T/C
Test: NCI In Vivo Anticancer Drug Screen. Data for tumor model L1210 Leukemia (intraperitoneal) in B6D2F1 (BDF1) mice
Details: endpoint: mean survival time, higher = longer survival
Summary of the method: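 Ratio derived from survival: compound-dosed mice over vehicle-dosed mice, all bearing a transplantable tumor.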

[1] = dose: 50.0 mg/kg/injection, schedule: Q01DX009 (ip), vehicle: Klucel (hydroxypropylcellulose) (HPC)
[2] = dose: 100.0 mg/kg/injection, schedule: Q01DX009 (ip), vehicle: Klucel (hydroxypropylcellulose) (HPC)
[3] = dose: 200.0 mg/kg/injection, schedule: Q01DX009 (ip), vehicle: Klucel (hydroxypropylcellulose) (HPC)
[4] = dose: 100.0 mg/kg/injection, schedule: Q04DX002 (ip), vehicle: Klucel (hydroxypropylcellulose) (HPC)
[5] = dose: 200.0 mg/kg/injection, schedule: Q04DX002 (ip), vehicle: Klucel (hydroxypropylcellulose) (HPC)
[6] = dose: 100.0 mg/kg/injection, schedule: Q04DX002 (ip), vehicle: saline with Tween-80
[7] = dose: 200.0 mg/kg/injection, schedule: Q04DX002 (ip), vehicle: saline with Tween-80
[8] = dose: 400.0 mg/kg/injection, schedule: Q04DX002 (ip), vehicle: saline with Tween-80
[9] = dose: 100.0 mg/kg/injection, schedule: Q01DX009 (ip), vehicle: saline with Tween-80
[10] = dose: 200.0 mg/kg/injection, schedule: Q01DX009 (ip), vehicle: saline with Tween-80
[11] = dose: 100.0 mg/kg/injection, schedule: Q01DX001 (ip), vehicle: other
[12] = dose: 100.0 mg/kg/injection, schedule: Q04DX003 (ip), vehicle: saline with Tween-80
[13] = dose: 200.0 mg/kg/injection, schedule: Q01DX001 (ip), vehicle: other
[14] = dose: 400.0 mg/kg/injection, schedule: Q01DX001 (ip), vehicle: other
[15] = dose: 100.0 mg/kg/injection, schedule: Q04DX003 (ip), vehicle: Klucel (hydroxypropylcellulose) (HPC)
[16] = dose: 200.0 mg/kg/injection, schedule: Q04DX003 (ip), vehicle: Klucel (hydroxypropylcellulose) (HPC)
[17] = dose: 400.0 mg/kg/injection, schedule: Q01DX009 (ip), vehicle: Klucel (hydroxypropylcellulose) (HPC)
[18] = dose: 400.0 mg/kg/injection, schedule: Q04DX003 (ip), vehicle: Klucel (hydroxypropylcellulose) (HPC)
[19] = dose: 75.0 mg/kg/injection, schedule: Q01DX001 (ip), vehicle: other
[20] = dose: 150.0 mg/kg/injection, schedule: Q01DX001 (ip), vehicle: other
[21] = dose: 300.0 mg/kg/injection, schedule: Q01DX001 (ip), vehicle: other

Measured: T/C

CCCc1nc2c(OC)ccc(OC)c2nc1C
inactive: dose: 12.5 mg/kg/injection, schedule: Q01DX009 (ip), vehicle: Klucel (hydroxypropylcellulose) (HPC) 98 % of control | dose: 25.0 mg/kg/injection, schedule: Q01DX009 (ip), vehicle: Klucel (hydroxypropylcellulose) (HPC) 97 % of control | [1] 92 % of control | [2] 94 % of control | dose: 100.0 mg/kg/injection, schedule: Q04DX003 (ip), vehicle: acetone 97 % of control | [3] 86 % of control | dose: 200.0 mg/kg/injection, schedule: Q04DX003 (ip), vehicle: acetone 97 % of control | dose: 400.0 mg/kg/injection, schedule: Q04DX003 (ip), vehicle: acetone 98 % of control

CNC(=O)OCC1=CC(=O)C(C)=CC1=O
inactive: dose: 1.56 mg/kg/injection, schedule: Q01DX009 (ip), vehicle: gum acacia 96 % of control | dose: 3.12 mg/kg/injection, schedule: Q01DX009 (ip), vehicle: gum acacia 89 % of control | dose: 6.25 mg/kg/injection, schedule: Q01DX009 (ip), vehicle: gum acacia 89 % of control | dose: 12.5 mg/kg/injection, schedule: Q04DX003 (ip), vehicle: gum acacia 95 % of control | dose: 25.0 mg/kg/injection, schedule: Q04DX003 (ip), vehicle: gum acacia 103 % of control

O=C(Nc1ccccc1)Oc1ccc(C2CCCCC2)cc1
inactive: [4] 93 % of control | [5] 121 % of control

C=C(C)C(=O)O[C@H]1CC2=C[C@@H](C[C@@]3(C)O[C@@H]3[C@H]3OC(=O)C(=C)[C@@H]31)OC2=O
inactive: dose: 2.5 mg/kg/injection, schedule: Q01DX009 (ip), vehicle: saline + alcohol 112 % of control | dose: 5.0 mg/kg/injection, schedule: Q01DX009 (ip), vehicle: saline + alcohol 110 % of control | dose: 5.0 mg/kg/injection, schedule: Q01DX Z (ip), vehicle: saline 106 % of control | dose: 10.0 mg/kg/injection, schedule: Q01DX009 (ip), vehicle: carboxymethylcellulose (CMC) 105 % of control | dose: 10.0 mg/kg/injection, schedule: Q01DX009 (ip), vehicle: saline + alcohol 107 % of control | dose: 10.0 mg/kg/injection, schedule: Q01DX Z (ip), vehicle: carboxymethylcellulose (CMC) 97 % of control | dose: 10.0 mg/kg/injection, schedule: Q01DX Z (ip), vehicle: saline 101 % of control | dose: 20.0 mg/kg/injection, schedule: Q01DX009 (ip), vehicle: carboxymethylcellulose (CMC) 93 % of control | dose: 20.0 mg/kg/injection, schedule: Q01DX009 (ip), vehicle: saline + alcohol 105 % of control | dose: 20.0 mg/kg/injection, schedule: Q01DX Z (ip), vehicle: carboxymethylcellulose (CMC) 100 % of control | dose: 40.0 mg/kg/injection, schedule: Q01DX009 (ip), vehicle: carboxymethylcellulose (CMC) 100 % of control | dose: 40.0 mg/kg/injection, schedule: Q01DX009 (ip), vehicle: saline + alcohol 90 % of control | dose: 40.0 mg/kg/injection, schedule: Q01DX Z (ip), vehicle: carboxymethylcellulose (CMC) 103 % of control

COC1OC(CI)C(OC(C)=O)C(OC(C)=O)C1OC(C)=O (stereo not given)
inactive: dose: 50.0 mg/kg/injection, schedule: Q04DX002 (ip), vehicle: Klucel (hydroxypropylcellulose) (HPC) 94 % of control | [4] 94 % of control | [5] 97 % of control

COc1cc2c(cc1OC)[C@H]1CNC[C@H]1[C@@H](c1ccccc1)C2
inactive: dose: 50.0 mg/kg/injection, schedule: Q01DX009 (ip), vehicle: saline 95 % of control | dose: 100.0 mg/kg/injection, schedule: Q01DX009 (ip), vehicle: saline 106 % of control | dose: 100.0 mg/kg/injection, schedule: Q04DX003 (ip), vehicle: saline 97 % of control | dose: 200.0 mg/kg/injection, schedule: Q01DX009 (ip), vehicle: saline 106 % of control | dose: 200.0 mg/kg/injection, schedule: Q04DX003 (ip), vehicle: saline 106 % of control

CCCc1ccc(OC/C=C(\C)CCC2OC2(C)CC)cc1 (stereo not given)
inactive: [6] 92 % of control | [7] 99 % of control | [8] 92 % of control

CC(=O)Nc1ncc(/C=C/C=C/c2ccc([N+](=O)[O-])cc2)c(NC(C)=O)n1
inactive: dose: 100.0 mg/kg/injection, schedule: Q01DX001 (ip), vehicle: Klucel (hydroxypropylcellulose) (HPC) 91 % of control | dose: 200.0 mg/kg/injection, schedule: Q01DX001 (ip), vehicle: Klucel (hydroxypropylcellulose) (HPC) 86 % of control | dose: 400.0 mg/kg/injection, schedule: Q01DX001 (ip), vehicle: Klucel (hydroxypropylcellulose) (HPC) 87 % of control

O=C(CNC(=O)NCc1ccccc1)N/N=C/c1ccccc1O
inactive: dose: 50.0 mg/kg/injection, schedule: Q01DX009 (ip), vehicle: saline with Tween-80 89 % of control | [9] 103 % of control | [10] 97 % of control

O=S(=O)(Nc1ccc2c3c(cccc13)CC2)c1ccccc1
inactive: [9] 92 % of control | [10] 94 % of control | dose: 400.0 mg/kg/injection, schedule: Q01DX009 (ip), vehicle: saline with Tween-80 103 % of control

Cc1ccc(S(=O)(=O)Nc2cccc(C(=O)O)c2)cc1
inactive: [11] 98 % of control | [12] 98 % of control | [13] 104 % of control | dose: 200.0 mg/kg/injection, schedule: Q04DX003 (ip), vehicle: saline with Tween-80 104 % of control | [14] 102 % of control | dose: 400.0 mg/kg/injection, schedule: Q04DX003 (ip), vehicle: saline with Tween-80 98 % of control

Brc1cccc(Br)n1
inactive: dose: 50.0 mg/kg/injection, schedule: Q01DX001 (ip), vehicle: other 101 % of control | [11] 121 % of control | [6] 106 % of control | [13] 97 % of control | [7] 93 % of control | [14] 101 % of control | [8] 106 % of control

O=C(Nc1cccc(F)c1)OCCOc1ccccc1
inactive: dose: 100.0 mg/kg/injection, schedule: Q01DX009 (ip), vehicle: gum acacia 93 % of control | dose: 200.0 mg/kg/injection, schedule: Q01DX009 (ip), vehicle: gum acacia 102 % of control | dose: 400.0 mg/kg/injection, schedule: Q01DX009 (ip), vehicle: gum acacia 96 % of control

O=[N+]([O-])c1ccc(C2SCSCS2)cc1
inactive: [15] 98 % of control | [3] 90 % of control | [16] 93 % of control | [17] 95 % of control | [18] 93 % of control

C=C(Br)CNC(=O)OC
inactive: dose: 25.0 mg/kg/injection, schedule: Q04DX003 (ip), vehicle: saline with Tween-80 100 % of control | dose: 50.0 mg/kg/injection, schedule: Q04DX003 (ip), vehicle: saline with Tween-80 105 % of control | [12] 121 % of control

NCC1CCCC1N (stereo not given)
inactive: dose: 18.8 mg/kg/injection, schedule: Q01DX009 (ip), vehicle: saline 102 % of control | dose: 37.5 mg/kg/injection, schedule: Q01DX009 (ip), vehicle: saline 102 % of control | dose: 75.0 mg/kg/injection, schedule: Q01DX009 (ip), vehicle: saline 97 % of control

O=C(O)CCC(NC(=O)OCc1ccccc1)C(=O)OCc1ccccc1 (stereo not given)
inactive: [1] 101 % of control | [2] 103 % of control | [15] 101 % of control | [3] 90 % of control | [16] 105 % of control

CCC(C)NNC(C)CC (stereo not given)
inactive: [19] 98 % of control | [20] 112 % of control | [21] 103 % of control

Cc1cc(OCCOC(=O)Nc2ccccc2F)cc(C)c1Cl
inactive: [2] 93 % of control | [3] 101 % of control | [17] 103 % of control

O=[N+]([O-])c1cc(/C=N/NC(=S)NC23CC4CC(CC(C4)C2)C3)ccc1Cl
inactive: [19] 97 % of control | [20] 89 % of control | [21] 91 % of control

CC1CCC2C(C1)N(c1ccccc1)OC2(C)C (stereo not given)
inactive: [15] 100 % of control | [16] 94 % of control | [18] 102 % of control

Cc1cccc[c]1[Sb]([c]1ccccc1C)[c]1ccccc1C
inactive: [6] 100 % of control | [7] 96 % of control | [8] 96 % of control
